Molecular target: T1, human JAK2 (Homo sapiens, UniProt O60674)
T1 construct: The kinase domain of human JAK2 was amplified; GST (N); made in house; host or cells: Sf9 insect cells (baculovirus)
Experiment: Alphascreen tyrosine kinase enzyme assay, JAK2 kinase domain
Format: biochemical
Settings: read-out: JAK2 IC50_nM
Outline: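 JAK2 kinase domain expressed in baculovirus/Sf9 and glutathione-affinity purified. Compounds (final […]) pre-incubated 20 min with enzyme in 10 mM HEPES pH 7.5, MgCl2, NaCl, vanadate, 0.1% Tween 20.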

T1 sequence (O60674 849-1124 limits assumed): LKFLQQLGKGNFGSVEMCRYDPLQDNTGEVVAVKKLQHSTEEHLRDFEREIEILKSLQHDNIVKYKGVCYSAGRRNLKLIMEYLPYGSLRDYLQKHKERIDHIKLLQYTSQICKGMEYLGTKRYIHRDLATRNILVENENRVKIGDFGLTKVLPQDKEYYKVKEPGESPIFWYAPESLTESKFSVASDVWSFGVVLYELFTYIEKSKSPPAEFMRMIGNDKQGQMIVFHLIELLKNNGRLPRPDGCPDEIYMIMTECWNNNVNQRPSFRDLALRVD

| Structure (SMILES) | IC50 [µM] |
| --- | --- |
| C=CC(=O)Nc1cccc(Nc2nccc(SC)n2)c1 [Compound 7, N-(3-(4-(methylthio)pyrimidin-2-ylao)phenyl)acrylamide] | > 1 |
| N#CCc1ccc(Sc2ccnc(Nc3ccc(N4CCOCC4)cc3)n2)cc1 [Compound 210, 2-(4-(2-(4-morpholinophenylao)pyrimidin-4-ylthio)phenyl)acetonitrile] | > 1 |
| Cc1cnc(Nc2ccc(N3CCOCC3)cc2)nc1Sc1ccc(CO)cc1 [Compound 220, (4-(5-methyl-2-(4-morpholinophenylao)pyrimidin-4-ylthio)phenyl)methanol] | < 0.5 |
| Cc1cnc(Nc2ccc(N3CCOCC3)cc2)nc1Sc1ccc(N2C(=O)COCC2=O)cc1 [Compound 190, 4-(4-(5-methyl-2-(4-morpholinophenylao)pyrimidin-4-ylthio)phenyl)morpholine-3,5-dione] | < 0.5 |
| N#Cc1c(N)ncn1Cc1ccc(Sc2ccnc(Nc3ccc(N4CCOCC4)cc3)n2)cc1 [Compound 203, 4-ao-1-(4-(2-(4-morpholinophenylao)pyrimidin-4-ylthio)benzyl)-1H-imidazole-5-carbonitrile] | < 1 |
| Cc1cnc(Nc2ccc(N3CCOCC3)cc2)nc1Sc1ccc(C(=O)N2CCCC2)cc1 [Compound 224, (4-(5-methyl-2-(4-morpholinophenylao)pyrimidin-4-ylthio)phenyl)(pyrrolidin-1-yl)methanone] | < 1 |
| N#Cc1ncn(Cc2ccc(Sc3ccnc(Nc4ccc(N5CCOCC5)cc4)n3)cc2)c1N [Compound 202, 5-ao-1-(4-(2-(4-morpholinophenylao)pyrimidin-4-ylthio)benzyl)-1H-imidazole-4-carbonitrile] | < 1 |
| Cc1cnc(Nc2ccc(N3CCOCC3)cc2)nc1Sc1ccc(C(C#N)N2CCN(C)CC2)cc1 (stereo not shown) [Compound 225, 2-(4-(5-methyl-2-(4-morpholinophenylao)pyrimidin-4-ylthio)phenyl)-2-(4-methylpiperazin-1-yl)acetonitrile] | > 1 |
| Cc1cnc(Nc2ccc(N3CCOCC3)cc2)nc1Sc1ccc(NC(=O)CO)cc1 [Compound 229, 2-hydroxy-N-(4-(5-methyl-2-(4-morpholinophenylao)pyrimidin-4-ylthio)phenyl)acetamide] | < 1 |
| Cc1cnc(Nc2ccc(N3CCOCC3)cc2)nc1Sc1ccc(NC2CCOC2=O)cc1 (stereo not shown) [Compound 228, 3-(4-(5-methyl-2-(4-morpholinophenylao)pyrimidin-4-ylthio)phenylao)dihydrofuran-2(3H)-one] | > 1 |
| Cc1cnc(Nc2cccc(S)c2)nc1Sc1ccc(NC(=O)CCl)cc1 [Compound 195, 2-chloro-N-(4-(2-(3-mercaptophenylao)-5-methylpyrimidin-4-ylthio)phenyl)acetamide] | > 1 |
| Cc1cnc(Nc2ccc(N3CCOCC3)cc2)nc1Sc1cccc(CO)c1 [Compound 212, (3-(5-methyl-2-(4-morpholinophenylao)pyrimidin-4-ylthio)phenyl)methanol] | < 0.5 |
| Cc1cnc(Nc2ccc(N3CCOCC3)cc2)nc1Sc1ccc(CC#N)cc1 [Compound 222, 2-(4-(5-methyl-2-(4-morpholinophenylao)pyrimidin-4-ylthio)phenyl)acetonitrile] | > 1 |
| Cc1cnc(Nc2ccc(N3CCOCC3)cc2)nc1Sc1ccc(C=O)cc1 [Compound 219, 4-(5-methyl-2-(4-morpholinophenylao)pyrimidin-4-ylthio)benzaldehyde] | > 1 |
| Cc1cnc(Nc2cccc(NS(C)(=O)=O)c2)nc1Sc1ccc(CO)cc1 [Compound 226, N-(3-(4-(4-(hydroxymethyl)phenylthio)-5-methylpyrimidin-2-ylao)phenyl)methanesulfonamide] | > 1 |
| Cc1cnc(Nc2ccc(N3CCOCC3)cc2)nc1Sc1ccc(N2CCSCC2=O)cc1 [Compound 197, 4-(4-(5-methyl-2-(4-morpholinophenylao)pyrimidin-4-ylthio)phenyl)thiomorpholin-3-one] | > 1 |
| Cc1cnc(Nc2ccc(N3CCOCC3)cc2)nc1Sc1ccc(C(C#N)N2CCOCC2)cc1 (stereo not shown) [Compound 223, 2-(4-(5-methyl-2-(4-morpholinophenylao)pyrimidin-4-ylthio)phenyl)-2-morpholinoacetonitrile] | > 1 |
| CON(C)C(=O)c1ccc(Sc2nc(Nc3ccc(N4CCOCC4)cc3)ncc2C)cc1 [Compound 218, N-methoxy-N-methyl-4-(5-methyl-2-(4-morpholinophenylao)pyrimidin-4-ylthio)benzamide] | > 1 |
| NC(=O)c1ccc(Sc2ccnc(Nc3ccc(N4CCOCC4)cc3)n2)cc1 [Compound 207, 4-(2-(4-morpholinophenylao)pyrimidin-4-ylthio)benzamide] | > 1 |
| c1cc(Sc2ccc(Cn3cncn3)cc2)nc(Nc2ccc(N3CCOCC3)cc2)n1 [Compound 204, 4-(4-((1H-1,2,4-triazol-1-yl)methyl)phenylthio)-N-(4-morpholinophenyl)pyrimidin-2-ae] | < 1 |
| N#Cc1c(N)ncn1Cc1cccc(Sc2ccnc(Nc3ccc(N4CCOCC4)cc3)n2)c1 [Compound 199, 4-ao-1-(3-(2-(4-morpholinophenylao)pyrimidin-4-ylthio)benzyl)-1H-imiazole-5-carbonitrile] | < 1 |
| Cc1cnc(Nc2ccc(O)cc2)nc1Sc1ccc(N)cc1 [Compound 191, 4-(4-(4-aophenylthio)-5-methylpyrimidin-2-ylao)phenol] | > 1 |
